The test system of data set [1] is brain cancer cells (U87). Briefly: Cell-killing effects against 2D and 3D U87 brain cancer cells by microscopy. It counts as cell-based, human. Particulars: for cell-killing / therapeutic activity: U87 3D masses and 2D cells, 10 μM. As for the experimental part: FIG. 7 illustrates the time-dependent uptake and cell-killing effects of Ir(III)-BZQ nucleoside (10 μM) against 2D and 3D brain cancer cells.
(§1) Fluorescent microscopy techniques were used to measure both red and green fluorescence associated with the cellular uptake of the analog over a three (3) day treatment period. […] The fluorescent signals are only observed in the 3D cancerous masses, thus making them easily identifiable at low magnification (10×).

The subject of data set [2] is brain cancer cells (U87). Briefly: Uptake/fluorescence imaging in 3D and 2D U87 brain cancer cell culture. It counts as cell-based, human. As for the experimental part: To improve the imaging capabilities of this class of compound, additional analogs corresponding to Ir(III)-BZQ nucleoside and Ir(III)-PBO nucleoside (FIG. 5) were synthesized and tested for uptake using 3-dimensional cell culture techniques. […] Fluorescent microscopy was used to investigate the uptake of each nucleoside in which cells were treated with 1 μM of each compound for 24 hours. […] This conclusion is based on the more intense fluorescent signal observed in cells treated with Ir(III)-BZQ nucleoside that accurately defines the overall 3-dimensional shape of the cancerous mass. In particular, the overall intensity in green fluorescence caused by the uptake of Ir(III)-BZQ nucleoside is about 5 times greater than observed in cells treated with equivalent concentrations of Ir(III)-PPY nucleoside. […] While this represents an interesting phenomenon, this behavior precludes the ability of Ir(III)-PBO nucleoside to function as a “tumor margin” imaging agents since there is no defined outline of the cancerous mass.
as §1
FIG. 10 compares fluorescence activity of Ir(III)-BZQ nucleoside with Indocyanine green at a fixed concentration of 10 μM. Images were taken comparing fluorescence emission in the red (600-700 nm) and green spectral range (500-600 nm) after 24 hours post-treatment.

In data set [3] the test system is normal fibroblasts. The data set can be described thus: Selective uptake in co-culture, normal fibroblasts, fluorescent microscopy. Particulars: co-cultured with RFP-U87, 10 μM, 4 hours. Format: cell-based. The method, then: (§2) Fluorescent microscopy was then used to validate that the uptake of Ir(III)-PPY nucleoside is selective for cancer cells. FIG. 4 compares the uptake of Ir(III)-PPY nucleoside using a human brain cancer cell line, U87, that expresses red fluorescent protein (RFP) versus normal fibroblasts. In these experiments, RFP-U87 cells were co-cultured with normal fibroblasts overnight and then treated with 10 μM Ir(III)-PPY nucleoside for 4 hours. […] Similar results were obtained at longer time intervals encompassing 24 hours incubation with Ir(III)-PPY nucleoside (data not shown).

Data set [4] has as its system cervical cancer cells (KB3-1 cell line). Briefly: Cellular uptake into KB3-1 cells by fluorescence microscopy. It counts as cell-based, human. The method, then:
FIG. 3 includes fluorescence microscopy images of the dose-dependent uptake of Ir(III)-PPY nucleoside in the human cancer cell line, KB3-1, particularly showing increased Ir(III)-PPY nucleoside (green) as a function of increasing concentration (Δt=4 hours).
Several Iridium-containing nucleosides were synthesized and their imaging and anti-cancer activities were characterized. One non-limiting example of a compound is designated as Ir(III)-PPY nucleoside and shown in FIG. 2 next to deoxyadenosine. The synthetic design relies on the catalyzed [3+2] cycloaddition of azides to terminal alkynes. In this design, pyridyl triazoles covalently link the metal atom to the deoxyribose and this prevents metal dissociation from the complex. The cellular uptake of Ir(III)-PPY nucleoside into cervical cancer cells (KB3-1 cell line) was evaluated by treating cells with variable concentrations of Ir(III)-PPY nucleoside (0-50 μM). At times ranging from 4 to 24 hours, fluorescence microscopy images were taken using an excitation wavelength (λex) of 340 nm and an emission wavelength (λem) of 480 nm. […] The uptake of low concentrations (10 μM) of Ir(III)-PPY nucleoside can be visualized as early as 4 hours post treatment. […] Thus, the cellular uptake can be measured on short time scales (Δt<12 hours) without complications arising from effects on cell viability.

Data set [5] has as its system human brain cancer cell line, U87, that expresses red fluorescent protein (RFP). The data set can be described thus: Selective uptake in co-culture, RFP-U87 cells, fluorescent microscopy. It counts as cell-based. The conditions noted are these: RFP-U87 co-cultured with normal fibroblasts, 10 μM, 4 hours.
Text: FIG. 4 includes microscopy images showing co-localization of Ir(III)-PPY nucleoside in glioblastoma cells expressing red-fluorescent protein (RFP-U87).
as §2

The test system of data set [6] is cervical cancer cells (KB3-1 cell line). The data set can be described thus: Cytotoxic effects in KB3-1 cells. Format: cell-based, human. The conditions noted are these: KB3-1, after 24 hours. From the text: Several Iridium-containing nucleosides were synthesized and their imaging and anti-cancer activities were characterized. One non-limiting example of a compound is designated as Ir(III)-PPY nucleoside and shown in FIG. 2 next to deoxyadenosine. The synthetic design relies on the catalyzed [3+2] cycloaddition of azides to terminal alkynes. In this design, pyridyl triazoles covalently link the metal atom to the deoxyribose and this prevents metal dissociation from the complex. The cellular uptake of Ir(III)-PPY nucleoside into cervical cancer cells (KB3-1 cell line) was evaluated by treating cells with variable concentrations of Ir(III)-PPY nucleoside (0-50 μM). At times ranging from 4 to 24 hours, fluorescence microscopy images were taken using an excitation wavelength (λex) of 340 nm and an emission wavelength (λem) of 480 nm. […] The uptake of low concentrations (10 μM) of Ir(III)-PPY nucleoside can be visualized as early as 4 hours post treatment. Ir(III)-PPY nucleoside produces weak cytotoxic effects (IC50˜50 μM) after 24 hours. Thus, the cellular uptake can be measured on short time scales (Δt<12 hours) without complications arising from effects on cell viability.

In data set [7] the test system is normal fibroblasts. The data set can be described thus: LD50 in 2D cell culture, normal fibroblasts. Particulars: 2D cell cultures. Format: cell-based. From the text:
The therapeutic activity and selectivity of Ir(III)-BZQ nucleoside was confirmed by measuring LD50 values against MB-468 cells (high accumulation), MDA-MB-231 (low accumulation), and normal fibroblasts using 2D cell cultures (Table 1, below).

The test system of a further data set is MDA-MB-231. The data set can be described thus: Uptake/fluorescence in 3D TNBC model MDA-MB-231. It counts as cell-based. The conditions noted are these: 3D MB-231, 10 μM, 24 hours. As for the experimental part: (§3) The theranostic activity of […] was also confirmed using 3D models of triple negative breast cancer (TNBC) (MDA-MB-453, MDA-MB-468, BT-549, MDA-MB-231). TNBC cells were chosen due to the poor prognosis caused by their aggressive nature and limited treatment options. 3D cancer cells were treated with 10 μM Ir(III)-BZQ nucleoside for 24 hours prior to microscopy analyses.

In the next data set the test system is MDA-MB-453. Briefly: Uptake/fluorescence in 3D TNBC model MDA-MB-453. Format: cell-based. The method, then: as §3
Two (2) new Iridium-nucleosides designated Ir(III)-PPY-nucleoside (small, hydrophobic) and Ir(III)-PBO nucleoside (small, hydrophilic) were synthesized and tested as cancer imaging agents. FIG. 14 compares the imaging properties of these two analogs versus our lead agent, Ir(III)-BZQ nucleoside (small, hydrophobic). Experiments were performed treating MDA-MB-453 cells with 1 μM of each compound for 3 days. […] This phenomenon precludes its further development as a tumor margin imaging agent as it poorly defines the entire 3D mass as compared to Ir(III)-BZQ nucleoside and Ir(III)-PPY nucleoside.

The next data set deals with MDA-MB-468. Briefly: Uptake/fluorescence in 3D TNBC model MDA-MB-468. Particulars: 3D MB-468, 10 μM, 24 hours. Format: cell-based. The method, then:
as §3

The test system of data set [8] is MT1A2 cells (derived from PyMT). The data set can be described thus: Uptake/fluorescence in MT1A2 cells. It counts as cell-based. Particulars: MT1A2, 10 μM, 24 hours.
The subject of a further data set is MDA-MB-468 cells. The data set can be described thus: Dual parameter flow cytometry (Annexin V / propidium iodide) apoptosis. Format: cell-based. The conditions noted are these: MDA-MB-468, variable concentrations. An excerpt: Dual parameter flow cytometry employing Annexin V and propidium iodide staining was used to measure apoptosis in MDA-MB-468 cells treated with variable concentrations of Ir(III)-BZQ nucleoside. […] Microscopy imaging verifies an increase in green fluorescence caused by the accumulation of Ir(III)-BZQ nucleoside and correlates with the dose-dependent increase in apoptosis caused by the agent.
In general terms: Flow cytometry measures light scatter and fluorescence of single cells or particles in a stream.

In another data set the test system is BT-549. The data set can be described thus: Uptake/fluorescence in 3D TNBC model BT-549. The conditions noted are these: 3D BT-549, 10 μM, 24 hours. Format: cell-based. As for the experimental part: as §3
Setting [9] is: U87, 10 μM, three days vs 1 day.

This note sets out measurements from patent publication US20240082433A1, “TUMOR RESECTION PROCESS AND COMPOSITION CONTAINING IRIDIUM-CONTAINING NUCLEOSIDE” (Cleveland State University, priority 2022, published 2024).

Where only a bound is given, the exact number is not on record here.

Usually IC50 stands for the midpoint of a concentration-inhibition curve. Lower therefore signals inhibition by little substance.

For `CC1(C)C(/C=C/C=C/C=C/C=C2\N(CCCCS(=O)(=O)O)c3ccc4ccccc4c3C2(C)C)=[N+](CCCCS(=O)(=O)[O-])c2ccc3ccccc3c21` [Indocyanine green, reference compound], in the data set on brain cancer cells (U87) [1] (1 to 3 days treatment), the “cell-killing / therapeutic activity” value is reported as “no detectable therapeutic activity”. In the data set with brain cancer cells (U87) [1] (U87, 10 μM, 1 to 3 days treatment), the “overall size of the 3D masses” value was “increases as a function of time”. In addition, in the data set on brain cancer cells (U87) [2] (10 μM, 24 hours post-treatment), the “fluorescence emission in the red spectral range (600-700 nm), direct comparison” value is listed as “superior fluorescence emission activity”. The “red fluorescence in U87 cells” value in the data set on brain cancer cells (U87) [2] (1 and 10 μM, after 24 hours, 10× magnification) is “dose-and time dependent increase in red fluorescence”. Also, the “fluorescence emission activity in the red spectral range (600-700 nm) relative to Ir(III) BZQ nucleoside” value in the data set with brain cancer cells (U87) [2] (U87, identical concentrations (1 and 10 μM), 24 hours) is on record as roughly 5 times.
Consider `F[P-](F)(F)(F)(F)F.OCC1OC(n2cc(-c3ccccn3)nn2)CC1O.c1ccc(-c2cccc[c]2[Ir][c]2ccccc2-c2ccccn2)nc1` [Ir(III)-PPY nucleoside], for which the “uptake in normal fibroblasts” value in the data set on normal fibroblasts [3] is “no uptake”. Further, the “intracellular accumulation (green fluorescence)” value in [4] (KB3-1, 0-50 μM, 4 to 24 hours, λex 340 nm, λem 480 nm) is on record as “dose-dependent”. Besides, the “time post treatment at which uptake can be visualized” value in data set [4] (KB3-1, 10 μM) was no more than 4 h. In addition, the “uptake in U87 cancer cells” value in data set [5] is on record as “rapidly accumulates”. The IC50 in data set [6] is roughly 50 µM. For the same compound, the red fluorescence entry in the data set with brain cancer cells (U87) [2] (U87 3D masses, 1 μM, 24 hours) is “not observed”.
With `F[P-](F)(F)(F)(F)F.OCC1OC(n2cc(-c3ccccn3)nn2)CC1O.c1cnc2c(c1)ccc1ccc[c]([Ir][c]3cccc4ccc5cccnc5c34)c12` [Ir(III)-BZQ nucleoside], in the data set with normal fibroblasts [7], the “cytotoxic effects (LD50)” value is “minimal cytotoxic effects”. Moreover, the “fluorescence signals (uptake and accumulation)” value with MDA-MB-231 is “weak fluorescence”. Also, the “fluorescence signals (uptake and accumulation)” value with MDA-MB-453 (3D MB-453, 10 μM, 24 hours) is given as “high fluorescence signals”. For the same compound, in the data set with MDA-MB-453 (MDA-MB-453, 1 μM, 3 days), the “fluorescence intensity compared to Ir(III)-PPY nucleoside and Ir(III)-PBO nucleoside” value is roughly 5 fold; the “imaging activity among the three compounds” value is reported as “superior activity”. Moreover, the “fluorescence signals (uptake and accumulation)” value with MDA-MB-468 is listed as “high fluorescence signals”. For the same compound, the “fluorescence signals (uptake and accumulation)” value in [8] is “no fluorescence signals”. For the same compound, in the data set on MDA-MB-468 cells, the apoptosis entry was “increase in both early- and late-stage apoptosis”; the necrotic cell death entry was “without causing necrotic cell death”. Further, in the data set with brain cancer cells (U87) [1] (1 to 3 days treatment), the “cell-killing / therapeutic activity” value is recorded as “possesses cell-killing activity”. Also, in the data set with brain cancer cells (U87) [1] (setting [9]), the “cell-killing effect on 2D cells” value was “reduction in the number of 2D cells” and the “cell-killing effect on 3D masses” value was “death of cells that reside at the outer fringe of the cancerous mass”. The “fluorescence signals (uptake and accumulation)” value in the data set on BT-549 is “weak fluorescence”. Further, the “fluorescence emission in the green spectral range (500-600 nm), direct comparison” value in the data set with brain cancer cells (U87) [2] (10 μM, 24 hours post-treatment) is reported as “superior fluorescence emission”. Also, in the data set with brain cancer cells (U87) [2] (U87 3D masses, 1 μM, 24 hours), the “imaging activity amongst the three compounds tested” value is reported as “superior activity” and the red fluorescence result was “display red fluorescence”. The “overall intensity in green fluorescence relative to Ir(III)-PPY nucleoside” value with brain cancer cells (U87) [2] (U87 3D masses, 1 μM, 24 hours, equivalent concentrations) is given as “about 5 times”. Also, the “fluorescence signal in 2D cells” value in the data set with brain cancer cells (U87) [2] (U87, 10 μM, 10× magnification) was “Little to no fluorescence signal”. Besides, the “fluorescence signals in 3D cancerous masses” value in the data set with brain cancer cells (U87) [2] (U87, 10 μM, after 1 day, 10× magnification) was “intense red and green fluorescence signals”. In the data set with brain cancer cells (U87) [2] (U87, 10 μM, after three days), the “fluorescence signals in 3D masses” value was “still show intense fluorescence signals”.
Consider `F[P-](F)(F)(F)(F)F.OCC1OC(n2cc(-c3ccccn3)nn2)CC1O.c1ccc(-c2ncco2)[c]([Ir][c]2ccccc2-c2ncco2)c1` [Ir(III)-PBO nucleoside], for which, in the data set on MDA-MB-453 (MDA-MB-453, 1 μM, 3 days), the “fluorescence pattern in cells” value was “unique punctates”. Moreover, in the data set with brain cancer cells (U87) [2] (U87 3D masses, 1 μM, 24 hours), the “fluorescence pattern in cells” value is reported as “unique punctates” and the red fluorescence result was “not observed”.
